Measured values as given in ChEMBL document CHEMBL5579824, “Novel Hsp90-Targeting PROTACs: Enhanced synergy with cisplatin in combination therapy of cervical cancer” (Eur J Med Chem, 2024).
Activity calls are given as the source filed them. No cut-off for these calls is given here.

Assays:
SiHa [1] = assay: Induction of apoptosis in human SiHa cells assessed as increase in apoptotic cells incubated after 48 hrs by annexin V-FITC/PI staining based flow cytometry; format: functional, cell-based; conditions: dose 0.05-10 µM
SiHa [2] = assay: Synergistic antiproliferative activity against human SiHa cells assessed as combination index at 0.5 uM incubated for 72 hrs in presence of 10 uM cisplatin by CCK-8 assay; format: functional
[3] = molecular target: Protein cereblon/Heat shock protein HSP 90-alpha/Heat shock protein HSP 90-beta (Homo sapiens) (UniProt P07900+P08238+Q96SW2); assay: Protac activity at CRBN/Hsp90 in human SiHa cells assessed as decrease in mTOR protein expression level at 0.01 to 1 uM incubated for 10 hrs by Western blot analysis; format: cell-based; conditions: dose 0.01-1 µM
SiHa [4] = assay: Synergistic antiproliferative activity against human SiHa cells assessed as combination index at 0.05 uM incubated for 72 hrs in presence of 31.62 uM cisplatin by CCK-8 assay; format: functional
SiHa [5] = assay: Synergistic antiproliferative activity against human SiHa cells assessed as combination index at 0.05 uM incubated for 72 hrs in presence of 10 uM cisplatin by CCK-8 assay; format: functional
C-33-A = assay: Antiproliferative activity against human C-33-A cells assessed as reduction in cell viability incubated for 72 hrs by CCK-8 assay; format: functional, cell-based
SiHa [6] = assay: Induction of apoptosis in human SiHa cells assessed as necrotic cells at 1 uM incubated after 48 hrs by annexin V-FITC/PI staining based flow cytometry (reference value: 0.08 %); format: functional
SiHa [7] = assay: Synergistic antiproliferative activity against human SiHa cells assessed as combination index at 0.05 uM incubated for 72 hrs in presence of 0.32 uM cisplatin by CCK-8 assay; format: functional
SiHa [8] = assay: Synergistic antiproliferative activity against human SiHa cells assessed as combination index at 10 uM incubated for 72 hrs in presence of 0.1 uM cisplatin by CCK-8 assay; format: functional
SiHa [9] = assay: Synergistic antiproliferative activity against human SiHa cells assessed as combination index at 1 uM incubated for 72 hrs in presence of 31.62 uM cisplatin by CCK-8 assay; format: functional
SiHa [10] = assay: Synergistic antiproliferative activity against human SiHa cells assessed as combination index at 0.05 uM incubated for 72 hrs in presence of 3.16 uM cisplatin by CCK-8 assay; format: functional

In the case of `CC1(C)CC(=O)c2c(C(F)(F)F)nn(-c3ccc(C(N)=O)c(N[C@H]4CC[C@H](OC(=O)CNC(=O)CCCCCCCNc5cccc6c5CN(C5CCC(=O)NC5=O)C6=O)CC4)c3)c2C1` (stereo partly specified), the Activity (SiHa [1]) is reported as “Dose-Dependent Effect”, the CI (SiHa [2]) is reported as 0.17 and the Activity [3] is reported as “inactive”. It also gave a CI (SiHa [4]) of 0.25, a CI (SiHa [5]) of 1.26 and an IC50 (C-33-A) of 70 nM. For the same compound, the Activity (SiHa [6]) was 0.29%, the CI (SiHa [7]) was 0.38 and the CI (SiHa [8]) was 2.06. For the same compound, the CI (SiHa [9]) was 0.27 and the CI (SiHa [10]) was 1.01.
